Data published in patent US5055613A, “Metabolites of pentanedioic acid derivatives” (G. D. Searle & Co., priority 1988, dated 1991).

Columns and labels:
fed hepatocytes [1] = assay: Fatty acid and cholesterol synthesis in isolated fed hepatocytes; format: cell-based, rat; details: 0.5 mM; for Cholesterol Synthesis: No Addition 0.013 ± 0.002; for Fatty Acid Synthesis: No Addition 0.024 ± 0.004
Experimental: (§1) Hepatocytes are prepared from ad lib fed rats or 8-hour fasted rats by the method of Berry and Friend (1969) with minor modifications (McCune and Harris, 1979 J. Biol. Chem. 254,10095-10101.) Lean female rats (200-300 g) are ad lib fed and on a 8:00 a.m.-8:00 p.m. light cycle. The cells are isolated between 9:00-10:00 a.m., to compensate for any diurnal rhythms such as glycogen depletion.
(§2) The cells are suspended in 2 mls of Krebs-Henseleit buffer supplemented with 2% BSA (essentially fatty acid free and dialyzed) under an atmosphere of 95% O2, 5% CO2 in stoppered 25 ml Erlenmeyer flasks. Incubations were conducted in a shaking water bath at 37° C. for appropriate times. Cells for fatty acid and cholesterol synthesis were treated with […] of H2 O(10mCi/ml) after 30 minutes of pre-incubation and stopped at 60 minutes.
Determination of cholesterol and fatty acid synthesis: The rate of fatty acid synthesis and cholesterol synthesis, expressed as moles of acetate equivalents/g wet weight of hepatocytes are determined by the incorporation of H2 O into total lipid, and extracted by the methods of Kates (1972 Tech. of Lipidology, 349, 363) and Harris (1975 Arch. Biochem. Biophys. 169, 168-180). Calculations are done according to Jungas (1968 Biochemistry 7, 3708-3717).
(§3) Various compounds of the present invention were added to various concentrations to the hepatocytes and incubated for a short period of time. The effect of the compound was evaluated on cholesterol, fatty acid and glucose synthesis as well on other metabolites in the cell.

fed hepatocytes [2] = assay: Glucose release, lactate and pyruvate (metabolites) in isolated fed hepatocytes; format: cell-based, rat; details: 0.5 mM; for Pyruvate: No Addition 0.186 ± 0.040; for Lactate: No Addition 0.317 ± 0.095
Experimental: as §1, §2
Assay of metabolites: Cells are terminated with HClO4 (0.1 ml of 60%) and treated as described previously; McCune et al., 1981 Methods of Enzymology 72, 557-559). The metabolites in the extracts are measured spectrophotometrically by enzymatic methods, according to the methods of Hohorst et al. (1959 Biochem. Z., 332,18-46) for pyruvate and lactate, Williamson et al. (1962) for acetoacetate and beta-hydroxybutyrate, Slein (1965) for glucose, Michal and Bergmeyer (1974) for acetyl-CoA, McCune, et al. (ibid) for glycogen, Mollering and Gruber (1966 Anal. Biochem. 17, 369-379) for citrate, and Lambrecht and Trautschold (1974 Methods of Enzymatic Analysis, 2101 2109) for ATP.
as §3

Structure (SMILES)	Cholesterol Synthesis (fed hepatocytes [1]) [mmoles/min/gm wet weight]	Fatty Acid Synthesis (fed hepatocytes [1]) [mmoles/min/gm wet weight]	Pyruvate (fed hepatocytes [2])	Lactate (fed hepatocytes [2])
CC(C)(CO)CCCCCCCCCCCC(O)(CC(=O)O)CC(=O)O [Example 14, 3-(13-Hydroxy-12,12-dimethyl-tridecyl)-3-hydroxy glutaric acid]	0.004 ± 0.001	0.003 ± 0.001	0.185 ± 0.042 mmoles/ml incubation medium	0.400 ± 0.091 mmoles/ml incubation medium
CC(C)(C)CCCCCCCCCCCC(O)(CC(=O)O)CC(=O)O [Prior Art Compound, 3hydroxy-3-[12,12dimethyltridecyl]glutaric acid, reference compound]	0.010 ± 0.002	0.010 ± 0.002	0.110 ± 0.013 mmoles/ml incubation medium	0.383 ± 0.085 mmoles/ml incubation medium
CC(C)(CCCCCCCCCCCC(O)(CC(=O)O)CC(=O)O)C(=O)O [Example 11, 3-(12-Carboxy-12-methyl-tridecyl)-3-hydroxy glutaric acid]	0.002 ± 0.001	0.003 ± 0.001	0.202 ± 0.028 mmoles/ml incubation medium	0.437 ± 0.104 mmoles/ml incubation medium
COC(=O)C(C)(C)CCCCCCCCCCCC(O)(CC(=O)O)CC(=O)O [Example 10, 3-(12-Carbomethoxy-12-methyl-tridecyl)-3-hydroxy glutaric acid]	0.003 ± 0.001	0.003 ± 0.001	0.220 ± 0.031 mmoles/ml incubation medium	0.477 ± 0.084 mmoles/ml incubation medium
